#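 Briefly, cells in 96-well plates were exposed to five compound concentrations for 48 h, and endpoints were estimated by linear interpolation. At the GI50, growth is halved. TGI marks complete inhibition of growth.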
# Legend:
# Test in all cases: NCI tumour cell line growth inhibition, 48 h
# 786-0 renal = test system: 786-0 renal
# A498 renal = test system: A498 renal
# A549 NSCLC = test system: A549 NSCLC
# ACHN renal = test system: ACHN renal
# BT-549 breast = test system: BT-549 breast
# CAKI-1 renal = test system: CAKI-1 renal
# CCRF-CEM leukemia = test system: CCRF-CEM leukemia
# COLO 205 colon = test system: COLO 205 colon
# DU-145 prostate = test system: DU-145 prostate
# EKVX NSCLC = test system: EKVX NSCLC
# HCC-2998 colon = test system: HCC-2998 colon
# HCT-116 colon = test system: HCT-116 colon
# HCT-15 colon = test system: HCT-15 colon
# HL-60(TB) leukemia = test system: HL-60(TB) leukemia
# HOP-62 NSCLC = test system: HOP-62 NSCLC
# HOP-92 NSCLC = test system: HOP-92 NSCLC
# HS 578T breast = test system: HS 578T breast
# HT29 colon = test system: HT29 colon
# IGROV1 ovarian = test system: IGROV1 ovarian
# K-562 leukemia = test system: K-562 leukemia
# KM12 colon = test system: KM12 colon
# LOX IMVI melanoma = test system: LOX IMVI melanoma
# M14 melanoma = test system: M14 melanoma
# MALME-3M melanoma = test system: MALME-3M melanoma
# MCF7 breast = test system: MCF7 breast
# MDA-MB-231 breast = test system: MDA-MB-231 breast
# MDA-MB-435 = test system: MDA-MB-435
# MOLT-4 leukemia = test system: MOLT-4 leukemia
# NCI-H226 lung = test system: NCI-H226 lung
# NCI-H23 lung = test system: NCI-H23 lung
# NCI-H460 lung = test system: NCI-H460 lung
# NCI-H522 lung = test system: NCI-H522 lung
# NCI/ADR-RES ovarian = test system: NCI/ADR-RES ovarian
# OVCAR-3 ovarian = test system: OVCAR-3 ovarian
# OVCAR-4 ovarian = test system: OVCAR-4 ovarian
# OVCAR-5 ovarian = test system: OVCAR-5 ovarian
# OVCAR-8 ovarian = test system: OVCAR-8 ovarian
# PC-3 prostate = test system: PC-3 prostate
# RPMI-8226 leukemia = test system: RPMI-8226 leukemia
# RXF 393 renal = test system: RXF 393 renal
# SF-268 CNS = test system: SF-268 CNS
# SF-295 CNS = test system: SF-295 CNS
# SF-539 CNS = test system: SF-539 CNS
# SK-MEL-2 melanoma = test system: SK-MEL-2 melanoma
# SK-MEL-28 melanoma = test system: SK-MEL-28 melanoma
# SK-MEL-5 melanoma = test system: SK-MEL-5 melanoma
# SK-OV-3 ovarian = test system: SK-OV-3 ovarian
# SN12C renal = test system: SN12C renal
# SNB-19 CNS = test system: SNB-19 CNS
# SNB-75 CNS = test system: SNB-75 CNS
# SW-620 colon = test system: SW-620 colon
# T-47D breast = test system: T-47D breast
# TK-10 renal = test system: TK-10 renal
# U251 CNS = test system: U251 CNS
# UACC-257 melanoma = test system: UACC-257 melanoma
# UACC-62 melanoma = test system: UACC-62 melanoma
# UO-31 renal = test system: UO-31 renal
smiles,measurement,setting,value
CC1=NOC(C)(O)/C1=N/O (centres undefined),TGI,786-0 renal,> 100 µM
same,TGI,A498 renal,> 100 µM
same,TGI,A549 NSCLC,> 100 µM
same,TGI,ACHN renal,> 100 µM
same,TGI,BT-549 breast,> 100 µM
same,TGI,CAKI-1 renal,> 100 µM
same,TGI,CCRF-CEM leukemia,> 100 µM
same,TGI,COLO 205 colon,> 100 µM
same,TGI,DU-145 prostate,> 100 µM
same,TGI,EKVX NSCLC,> 100 µM
same,TGI,HCC-2998 colon,> 100 µM
same,TGI,HCT-116 colon,> 100 µM
same,TGI,HCT-15 colon,> 100 µM
same,TGI,HL-60(TB) leukemia,> 100 µM
same,TGI,HOP-62 NSCLC,> 100 µM
same,TGI,HOP-92 NSCLC,> 100 µM
same,TGI,HS 578T breast,> 100 µM
same,TGI,HT29 colon,> 100 µM
same,TGI,IGROV1 ovarian,> 100 µM
same,TGI,K-562 leukemia,> 100 µM
same,TGI,KM12 colon,> 100 µM
same,TGI,LOX IMVI melanoma,> 100 µM
same,TGI,M14 melanoma,> 100 µM
same,TGI,MALME-3M melanoma,> 100 µM
same,TGI,MCF7 breast,> 100 µM
same,TGI,MDA-MB-231 breast,> 100 µM
same,TGI,MDA-MB-435,> 100 µM
same,TGI,MOLT-4 leukemia,> 100 µM
same,TGI,NCI-H226 lung,> 100 µM
same,TGI,NCI-H23 lung,> 100 µM
same,TGI,NCI-H460 lung,> 100 µM
same,TGI,NCI-H522 lung,> 100 µM
same,TGI,NCI/ADR-RES ovarian,> 100 µM
same,TGI,OVCAR-3 ovarian,> 100 µM
same,TGI,OVCAR-4 ovarian,> 100 µM
same,TGI,OVCAR-5 ovarian,> 100 µM
same,TGI,OVCAR-8 ovarian,> 100 µM
same,TGI,PC-3 prostate,> 100 µM
same,TGI,RPMI-8226 leukemia,> 100 µM
same,TGI,RXF 393 renal,> 100 µM
same,TGI,SF-268 CNS,> 100 µM
same,TGI,SF-295 CNS,> 100 µM
same,TGI,SF-539 CNS,> 100 µM
same,TGI,SK-MEL-2 melanoma,> 100 µM
same,TGI,SK-MEL-28 melanoma,> 100 µM
same,TGI,SK-MEL-5 melanoma,> 100 µM
same,TGI,SK-OV-3 ovarian,> 100 µM
same,TGI,SN12C renal,> 100 µM
same,TGI,SNB-19 CNS,> 100 µM
same,TGI,SNB-75 CNS,> 100 µM
same,TGI,SW-620 colon,> 100 µM
same,TGI,T-47D breast,> 100 µM
same,TGI,TK-10 renal,> 100 µM
same,TGI,U251 CNS,> 100 µM
same,TGI,UACC-257 melanoma,> 100 µM
same,TGI,UACC-62 melanoma,> 100 µM
same,TGI,UO-31 renal,> 100 µM
COc1cc(/C=C\c2cc(/C=C\c3ccc(O)c(OC)c3)n(C(=O)COc3ccc(Cl)cc3Cl)n2)ccc1O,GI50,786-0 renal,0.634 µM
same,TGI,786-0 renal,2.52 µM
same,GI50,A498 renal,3.82 µM
same,TGI,A498 renal,12 µM
same,GI50,A549 NSCLC,1.31 µM
same,TGI,A549 NSCLC,10.3 µM
same,GI50,ACHN renal,0.476 µM
same,TGI,ACHN renal,9.13 µM
same,GI50,BT-549 breast,0.526 µM
same,TGI,BT-549 breast,3.34 µM
same,GI50,CAKI-1 renal,0.818 µM
same,TGI,CAKI-1 renal,> 100 µM
same,GI50,CCRF-CEM leukemia,0.432 µM
same,TGI,CCRF-CEM leukemia,> 100 µM
same,GI50,COLO 205 colon,1.98 µM
same,TGI,COLO 205 colon,4.01 µM
same,GI50,DU-145 prostate,0.833 µM
same,TGI,DU-145 prostate,9.94 µM
same,GI50,EKVX NSCLC,1.98 µM
same,TGI,EKVX NSCLC,9.72 µM
same,GI50,HCC-2998 colon,2.89 µM
same,TGI,HCC-2998 colon,12.4 µM
same,GI50,HCT-116 colon,0.416 µM
same,TGI,HCT-116 colon,6.21 µM
same,GI50,HCT-15 colon,0.342 µM
same,TGI,HCT-15 colon,3.61 µM
same,GI50,HL-60(TB) leukemia,0.314 µM
same,TGI,HL-60(TB) leukemia,1.31 µM
same,GI50,HOP-62 NSCLC,0.519 µM
same,TGI,HOP-62 NSCLC,3.16 µM
same,GI50,HOP-92 NSCLC,2.93 µM
same,TGI,HOP-92 NSCLC,7.94 µM
same,GI50,HS 578T breast,1.2 µM
same,TGI,HS 578T breast,> 100 µM
same,GI50,HT29 colon,2.75 µM
same,TGI,HT29 colon,7.03 µM
same,GI50,IGROV1 ovarian,1.99 µM
same,TGI,IGROV1 ovarian,10.3 µM
same,GI50,K-562 leukemia,0.381 µM
same,TGI,K-562 leukemia,> 100 µM
same,GI50,KM12 colon,0.506 µM
same,TGI,KM12 colon,26.2 µM
same,GI50,LOX IMVI melanoma,0.497 µM
same,TGI,LOX IMVI melanoma,3.29 µM
same,GI50,M14 melanoma,0.349 µM
same,TGI,M14 melanoma,4.83 µM
same,GI50,MALME-3M melanoma,0.488 µM
same,TGI,MALME-3M melanoma,5.03 µM
same,GI50,MCF7 breast,0.336 µM
same,TGI,MCF7 breast,2.33 µM
same,GI50,MDA-MB-231 breast,2.38 µM
same,TGI,MDA-MB-231 breast,23.4 µM
same,GI50,MDA-MB-435,0.243 µM
same,TGI,MDA-MB-435,14.7 µM
same,GI50,MOLT-4 leukemia,0.425 µM
same,TGI,MOLT-4 leukemia,3.46 µM
same,GI50,NCI-H226 lung,2.98 µM
same,TGI,NCI-H226 lung,10.2 µM
same,GI50,NCI-H23 lung,1.06 µM
same,TGI,NCI-H23 lung,5 µM
same,GI50,NCI-H460 lung,0.517 µM
same,TGI,NCI-H460 lung,14.2 µM
same,GI50,NCI-H522 lung,0.196 µM
same,TGI,NCI-H522 lung,0.837 µM
same,GI50,NCI/ADR-RES ovarian,0.538 µM
same,TGI,NCI/ADR-RES ovarian,21.1 µM
same,GI50,OVCAR-4 ovarian,1.29 µM
same,TGI,OVCAR-4 ovarian,> 100 µM
same,GI50,OVCAR-5 ovarian,2.71 µM
same,TGI,OVCAR-5 ovarian,8.32 µM
same,GI50,OVCAR-8 ovarian,1.59 µM
same,TGI,OVCAR-8 ovarian,6.09 µM
same,GI50,PC-3 prostate,1.8 µM
same,TGI,PC-3 prostate,8.02 µM
same,GI50,RPMI-8226 leukemia,0.569 µM
same,TGI,RPMI-8226 leukemia,7.62 µM
same,GI50,RXF 393 renal,1.27 µM
same,TGI,RXF 393 renal,3.33 µM
same,GI50,SF-268 CNS,0.621 µM
same,TGI,SF-268 CNS,9.84 µM
same,GI50,SF-295 CNS,3.07 µM
same,TGI,SF-295 CNS,8.87 µM
same,GI50,SF-539 CNS,0.38 µM
same,TGI,SF-539 CNS,2.85 µM
same,GI50,SK-MEL-2 melanoma,0.302 µM
same,TGI,SK-MEL-2 melanoma,1.54 µM
same,GI50,SK-MEL-28 melanoma,1.19 µM
same,TGI,SK-MEL-28 melanoma,7.32 µM
same,GI50,SK-MEL-5 melanoma,0.661 µM
same,TGI,SK-MEL-5 melanoma,3.03 µM
same,GI50,SK-OV-3 ovarian,1.26 µM
same,TGI,SK-OV-3 ovarian,3.43 µM
same,GI50,SN12C renal,0.935 µM
same,TGI,SN12C renal,65.8 µM
same,GI50,SNB-19 CNS,1.41 µM
same,TGI,SNB-19 CNS,11.7 µM
same,GI50,SNB-75 CNS,0.994 µM
same,TGI,SNB-75 CNS,7.81 µM
same,GI50,SW-620 colon,0.659 µM
same,TGI,SW-620 colon,> 100 µM
same,GI50,T-47D breast,1.25 µM
same,TGI,T-47D breast,3.99 µM
same,GI50,TK-10 renal,1.79 µM
same,TGI,TK-10 renal,8.06 µM
same,GI50,U251 CNS,0.916 µM
same,TGI,U251 CNS,6.15 µM
same,GI50,UACC-257 melanoma,2.19 µM
same,TGI,UACC-257 melanoma,7.13 µM
same,GI50,UACC-62 melanoma,0.552 µM
same,TGI,UACC-62 melanoma,12 µM
same,GI50,UO-31 renal,0.362 µM
same,TGI,UO-31 renal,2.3 µM
